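Cells were grown in 96-well plates and exposed to each compound for 48 hours at five concentrations; endpoints were interpolated linearly between bracketing concentrations, or set to the highest concentration if not reached. At the GI50, growth is halved.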 Calls of active or inactive are those of the source. No stated cut-off is given here; in the data, active = GI50 up to about 1.1 µM and inactive = higher.
Tests used:
Test in all cases: DTP human tumour cell line panel, 48 h
786-0 = system: 786-0
COLO 205 = system: COLO 205
HCT-116 = system: HCT-116
HCT-15 = system: HCT-15
HOP-62 = system: HOP-62
KM12 = system: KM12
MDA-MB-435 = system: MDA-MB-435
MDA-N = system: MDA-N
NCI-H23 = system: NCI-H23
NCI/ADR-RES = system: NCI/ADR-RES
OVCAR-5 = system: OVCAR-5
RPMI-8226 = system: RPMI-8226
SF-268 = system: SF-268
SF-539 = system: SF-539
SK-MEL-2 = system: SK-MEL-2
SN12C = system: SN12C
SNB-19 = system: SNB-19
U-251 = system: U-251
NCI-H460 = system: NCI-H460

Structure (SMILES)	GI50 (786-0)	GI50 (COLO 205)	GI50 (HCT-116)	GI50 (HCT-15) [µM]	GI50 (HOP-62)	GI50 (KM12)	GI50 (MDA-MB-435)	GI50 (MDA-N)	GI50 (NCI-H23)	GI50 (NCI/ADR-RES)	GI50 (OVCAR-5)	GI50 (RPMI-8226)	GI50 (SF-268)	GI50 (SF-539)	GI50 (SK-MEL-2)	GI50 (SN12C)	GI50 (SNB-19)	GI50 (U-251)	GI50 (NCI-H460)
Fc1cccc(C2SCc3nc4cc5ccccc5cc4n32)c1 (stereo not given)	69.3 µM (inactive)	> 100 µM (inactive)	> 100 µM (inactive)	> 100	41.5 µM (inactive)	> 100 µM (inactive)	> 100 µM (inactive)	> 100 µM (inactive)	> 100 µM (inactive)	> 100 µM (inactive)	> 100 µM (inactive)	> 100 µM (inactive)	> 100 µM (inactive)	> 100 µM (inactive)	> 100 µM (inactive)	53.3 µM (inactive)	> 100 µM (inactive)	> 100 µM (inactive)	
C(=C/CCCN1O[C@@H](CCCCCCCCc2cccnc2)[C@H]2CCC[C@H]21)/CCCCCCCCCc1cccnc1	18.7 µM (inactive)	14.9 µM (inactive)	16 µM (inactive)	24.8	20.8 µM (inactive)	18.5 µM (inactive)	16.2 µM (inactive)	24.1 µM (inactive)	16.6 µM (inactive)	28.1 µM (inactive)	20 µM (inactive)	7.96 µM (inactive)	23.4 µM (inactive)	18.1 µM (inactive)	22.4 µM (inactive)	19.7 µM (inactive)	25.6 µM (inactive)	15.7 µM (inactive)	17.3 µM (inactive)
O=C1Nc2ccccc2NC1C1OC(c2ccccc2)=CC1=O (stereo not given)	> 100 µM (inactive)	> 100 µM (inactive)	> 100 µM (inactive)	> 100		> 100 µM (inactive)	> 100 µM (inactive)	> 100 µM (inactive)	> 100 µM (inactive)	82.2 µM (inactive)	> 100 µM (inactive)	> 100 µM (inactive)	> 100 µM (inactive)	> 100 µM (inactive)	> 100 µM (inactive)		> 100 µM (inactive)	> 100 µM (inactive)	> 100 µM (inactive)
COC(=O)c1csc(-c2nc(CCNC(=O)OC(C)(C)C)sc2Br)n1	> 100 µM (inactive)	> 100 µM (inactive)	> 100 µM (inactive)	> 100	> 100 µM (inactive)	> 100 µM (inactive)	> 100 µM (inactive)	> 100 µM (inactive)	> 100 µM (inactive)	> 100 µM (inactive)	> 100 µM (inactive)	99.3 µM (inactive)	> 100 µM (inactive)	> 100 µM (inactive)		> 100 µM (inactive)	> 100 µM (inactive)	> 100 µM (inactive)	> 100 µM (inactive)
Cc1c(C)c2ccc(O)cc2[nH]c1=O	> 100 µM (inactive)	> 100 µM (inactive)	> 100 µM (inactive)	> 100	> 100 µM (inactive)	> 100 µM (inactive)	> 100 µM (inactive)	> 100 µM (inactive)	> 100 µM (inactive)	> 100 µM (inactive)	> 100 µM (inactive)	> 100 µM (inactive)		> 100 µM (inactive)	> 100 µM (inactive)	> 100 µM (inactive)	> 100 µM (inactive)	> 100 µM (inactive)	> 100 µM (inactive)
CCOC(=O)c1c(-c2ccc(OC)c(O)c2)c(C#N)c(=S)n(C2OC(CO)C(O)C(O)C2O)c1-c1ccccc1 (stereo not given)	> 100 µM (inactive)	> 100 µM (inactive)	> 100 µM (inactive)	> 100	> 100 µM (inactive)	> 100 µM (inactive)	> 100 µM (inactive)	> 100 µM (inactive)	> 100 µM (inactive)	> 100 µM (inactive)		> 100 µM (inactive)	> 100 µM (inactive)			> 100 µM (inactive)	> 100 µM (inactive)	> 100 µM (inactive)	> 100 µM (inactive)
C1=CC(=[N+]2N=C(c3ccccc3)CC2c2ccccc2)C=CC1=C1SC(c2ccccc2)(c2ccccc2)c2ccccc21.[O-][Cl+3]([O-])([O-])[O-] (stereo not given)	> 100 µM (inactive)		93.5 µM (inactive)	> 100	> 100 µM (inactive)	> 100 µM (inactive)	> 100 µM (inactive)	> 100 µM (inactive)	> 100 µM (inactive)	> 100 µM (inactive)	> 100 µM (inactive)		> 100 µM (inactive)	> 100 µM (inactive)	> 100 µM (inactive)	> 100 µM (inactive)	79.4 µM (inactive)	> 100 µM (inactive)	> 100 µM (inactive)
COc1cccc(C(C#N)NNC(=O)c2c(Cl)c(Cl)c(Cl)c(Cl)c2-c2nc3cc(C(=O)c4ccccc4)ccc3[nH]2)c1O (stereo not given)	4.06 µM (inactive)	3.24 µM (inactive)	4 µM (inactive)	4.06	2.03 µM (inactive)	3.64 µM (inactive)	1.81 µM (inactive)	1.68 µM (inactive)	5.74 µM (inactive)	2.54 µM (inactive)	18.6 µM (inactive)	3.55 µM (inactive)		2.63 µM (inactive)	4.05 µM (inactive)	2.7 µM (inactive)	4.63 µM (inactive)	4.44 µM (inactive)	
